Data from patent publication US20060069110A1, “Substituted heterocyclic compounds and methods of use” (priority 2004, published 2006).

tested on: THP1 cells (LPS induced TNF release); test: Lipopolysaccharide-Activated THP1 Cell TNF Production Assay; type: cell-based; conditions: Homo sapiens, THP-1; THP1 cells, bacterial LPS, secreted TNF-α after 3 h at 37° C.; read-out: IC50 values in the THP1 cell assay (LPS induced TNF release)
Procedure: Lipopolysaccharide-Activated THP1 Cell TNF Production Assay
THP1 cells are resuspended in fresh THP1 media (RPMI 1640, 10% heat-inactivated FBS, 1×PGS, 1×NEAA, plus 30 μM βME) at a concentration of 1E6/mL. One hundred microliters of cells per well are plated in a polystyrene 96-well tissue culture. One microgram per mL of bacterial LPS is prepared in THP1 media and is transferred to the wells. Test compounds are dissolved in 100% DMSO and are serially diluted 3 fold in a polypropylene 96-well microtiter plate (drug plate). HI control and LO control wells contain only DMSO. One microliter of test compound from the drug plate followed by 10 μL of LPS are transferred to the cell plate. The treated cells are induced to synthesize and secrete TNF-α at 37° C. for 3 h. Forty microliters of conditioned media are transferred to a 96-well polypropylene plate containing 110 μL of ECL buffer (50 mM Tris-HCl pH 8.0, 100 mM NaCl, 0.05% Tween 20, 0.05% NaN3 and 1% FBS) supplemented with 0.44 nM MAB610 monoclonal Ab (R&D Systems), 0.34 nM ruthenylated AF210NA polyclonal Ab (R&D Systems) and 44 μg/mL sheep anti-mouse M280 Dynabeads (Dynal). After a 2 h incubation at RT with shaking, the reaction is read on the ECL M8 Instrument (IGEN Inc.). A low voltage is applied to the ruthenylated TNF-α immune complexes, which in the presence of TPA (the active component in Origlo), results in a cyclical redox reaction generating light at […]. The amount of secreted TNF-α in the presence of compound compared with that in the presence of DMSO vehicle alone (HI control) is calculated using the formula: % control (POC)=(cpd−average LO)/(average HI−average LO)*100. Data (consisting of POC and inhibitor concentration in μM) is fitted to a 4-parameter equation (y=A+((B−A)/(1+((×/C)ôD))), where A is the minimum y (POC) value, B is the maximum y (POC), C is the x (cpd concentration) at the point of inflection and D is the slope factor) using a Levenburg-Marquardt non-linear regression algorithm.

IC50, ≤ 20 µM:
CSc1nccc(Nc2cc(-c3ccccc3)c(=O)n(C)c2)n1 [1-methyl-5-((2-(methylsulfanyl)-4-pyrimidinyl)amino)-3-phenyl-2(1H)-pyridinone]
CC(C)n1cc(N(C)c2ccnc(N[C@@H](C)Cc3cccc(CN)c3)n2)cc(-c2ccccc2)c1=O [5-((2-(((1S)-2-(3-(aminomethyl)phenyl)-1-methylethyl)amino)-4-pyrimidinyl)(methyl)amino)-1-(1-methylethyl)-3-phenyl-2(1H)-pyridinone]
C[C@@H](Cc1cccc([C@@H](C)N)c1)Nc1nccc(N(C)c2c[nH]c(=O)c(-c3ccccc3)c2)n1 [5-((2-((S)-1-(3-((R)-1-Aminoethyl)phenyl)propan-2-ylamino)pyrimidin-4-yl)-(methyl)amino)-3-phenylpyridin-2(1H)-one]
CN(c1ccnc(N[C@@H](CO)Cc2ccccc2)n1)c1ccnc(-c2ccccc2)n1 [(2R)-2-((4-(methyl(2-phenyl-4-pyrimidinyl)amino)-2-pyrimidinyl)amino)-3-phenyl-1-propanol]
CN(c1cc(-c2ccccc2)c(=O)n(C)c1)c1ccnc(N[C@@H](CC(=O)O)Cc2ccccc2)n1 [(3R)-3-((4-(methyl(1-methyl-6-oxo-5-phenyl-1,6-dihydro-3-pyridinyl)amino)-2-pyrimidinyl)amino)-4-phenylbutanoic acid]
CN(c1ccnc(N[C@@H](CCO)Cc2ccccc2)n1)c1ccnc(-c2ccccc2)n1 [(3R)-3-((4-(methyl(2-phenyl-4-pyrimidinyl)amino)-2-pyrimidinyl)amino)-4-phenyl-1-butanol]
CNC(=O)NCc1cccc(C[C@H](C)Nc2nccc(Nc3nc(-c4ccccc4)ncc3C(=O)NC)n2)c1 [(S)-1-(3-(2-(4-(5-(Methylcarbamoyl)-2-phenylpyrimidin-4-ylamino)pyrimidin-2-ylamino)propyl)benzyl)-3-methylurea]
CNC(=O)c1cnc(-c2ccccc2)nc1Nc1ccnc(N[C@@H](C)Cc2cccc(CN)c2)n1 [(S)-4-(2-(1-(3-(aminomethyl)phenyl)-propan-2-ylamino)pyrimidin-4-ylamino)-N-methyl-2-phenylpyrimidine-5-carboxamide]
C[C@@H](Cc1cccc(CNC(=O)OC(C)(C)C)c1)Nc1nccc(N(C)c2cc(-c3ccccc3)c(=O)n(C)c2)n1 [(S)-tert-Butyl-3-(2-(4-(methyl(1-methyl-6-oxo-5-phenyl-1,6-dihydro-pyridin-3-yl)amino)pyrimidin-2-ylamino)propyl)benzylcarbamate]
C[C@@H](Cc1cccc([C@@H](C)N)c1)Nc1nccc(N(C)c2ccnc(-c3ccccc3)n2)n1 [Example 1, N^2-((S)-1-(3-((R)-1-Aminoethyl)phenyl)propan-2-yl)-N^4-methyl-N^4-(2-phenylpyrimidin-4-yl)pyrimidine-2,4-diamine]
C[C@H](Nc1nccc(N(C)c2ccnc(-c3ccccc3)n2)n1)c1ccc(CCN)cc1 [Example 3, (S)-N^2-(1-(4-(2-Aminoethyl)phenyl)ethyl)-N^4-methyl-N^4-(2-phenylpyrimidin-4-yl)pyrimidine-2,4-diamine]
C[C@H](NC(=O)OC(C)(C)C)c1ccc(CCNc2nccc(N(C)c3ccnc(-c4ccccc4)n3)n2)cc1 [Example 4, (S)-tert-Butyl 1-(4-(2-(4-(methyl(2-phenylpyrimidin-4-yl)amino)pyrimidin-2-ylamino)ethyl)phenyl)ethyl carbamate]
CN(c1ccnc(NC(C)(C)Cc2ccccc2)n1)c1ccnc(-c2ccccc2)n1 [Example 6, N^4-Methyl-N^2-(2-methyl-1-phenylpropan-2-yl)-N^4-(2-phenylpyrimidin-4-yl)pyrimidine-2,4-diamine]
C[C@@H](Cc1cccc(C2(N)CC2)c1)Nc1nccc(N(C)c2ccnc(-c3ccccc3)n2)n1 [Example 7, (S)-N^2-(1-(3-(1-Aminocyclopropyl)phenyl)propan-2-yl)-N^4-methyl-N^4-(2-phenylpyrimidin-4-yl)pyrimidine-2,4-diamine]
C[C@@H](Cc1cccc(CN)c1)Nc1nccc(N(C)c2nc(N)cc(-c3ccccc3)n2)n1 [Example 8, (S)-N^4-(4-Amino-6-phenylpyrimidin-2-yl)-N^2-(1-(3-(aminomethyl)phenyl)propan-2-yl)-N^4-methylpyrimidine-2,4-diamine]
C[C@H](Nc1nccc(N(C)c2ccnc(-c3ccccc3)n2)n1)[C@@H]1CCC[C@H](CCN)C1 [Example 10, N^2-((S)-((1R,3S)-3-(2-Aminoethyl)cyclohexyl)ethyl)-N^4-methyl-N^4-(2-phenylpyrimidin-4-yl)pyrimidine-2,4-diamine]
C[C@H](N)C1CCCC(CCNc2nccc(N(C)c3ccnc(-c4ccccc4)n3)n2)C1 (stereo partly drawn) [Example 12, N^2-(2-(3-((S)-1-Aminoethyl)cyclohexyl)ethyl)-N^4-methyl-N^4-(2-phenylpyrimidin-4-yl)pyrimidine-2,4-diamine]
CN(c1ccnc(N[C@H]2CC[C@H](N)CC2)n1)c1ccnc(-c2ccccc2)n1 [Example 13, N^2-((1r,4r)-4-Aminocyclohexyl)-N^4-methyl-N^4-(2-phenylpyrimidin-4-yl)pyrimidine-2,4-diamine]
CN(c1ccnc(NCCc2ccccc2Cl)n1)c1ccnc(-c2ccccc2)n1 [Example 14, N^2-(2-Chlorophenethyl)-N^4-methyl-N^4-(2-phenylpyrimidin-4-yl)pyrimidine-2,4-diamine]
CN(c1ccnc(NCCc2cccnc2)n1)c1ccnc(-c2ccccc2)n1 [Example 15, N^4-Methyl-N^4-(2-phenylpyrimidin-4-yl)-N^2-(2-(pyridin-3-yl)ethyl)pyrimidine-2,4-diamine]
CN(c1ccnc(NC2CCNCC2)n1)c1ccnc(-c2ccccc2)n1 [Example 16, N^4-Methyl-N^4-(2-phenylpyrimidin-4-yl)-N^2-(piperidin-4-yl)pyrimidine-2,4-diamine]
C[C@H](Nc1nccc(N(C)c2ccnc(-c3ccccc3)n2)n1)c1cccc(CCC(=O)O)c1 [Example 18, (S)-3-(3-(1-(4-(Methyl(2-phenylpyrimidin-4-yl)amino)pyrimidin-2-ylamino)-ethyl)phenyl)propanoic acid]
C[C@H](Nc1nccc(N(C)c2ccnc(-c3ccccc3)n2)n1)c1cccc(CCN)c1 [Example 19, (S)-N^2-(1-(3-(2-Aminoethyl)phenyl)ethyl)-N^4-methyl-N^4-(2-phenylpyrimidin-4-yl)pyrimidine-2,4-diamine]
C[C@H](NC(=O)OC(C)(C)C)c1cccc(CCNc2nccc(N(C)c3ccnc(-c4ccccc4)n3)n2)c1 [Example 20, (S)-tert-Butyl 1-(3-(2-(4-(methyl(2-phenylpyrimidin-4-yl)amino)pyrimidin-2-yl-amino)ethyl)phenyl)ethylcarbamate]
C[C@H](N)c1cccc(CCNc2nccc(N(C)c3ccnc(-c4ccccc4)n3)n2)c1 [Example 21, (S)-N^2-(3-(1-Aminoethyl)phenethyl)-N^4-methyl-N^4-(2-phenylpyrimidin-4-yl)-pyrimidine-2,4-diamine]
CC(=O)N1CCC(Nc2nccc(N(C)c3ccnc(-c4ccccc4)n3)n2)CC1 [Example 22, 1-(4-(4-(Methyl(2-phenylpyrimidin-4-yl)amino)pyrimidin-2-ylamino)piperidin-1-yl)ethanone]
C[C@H](N)C(=O)N1CCC(Nc2nccc(N(C)c3ccnc(-c4ccccc4)n3)n2)CC1 [Example 23]
CC(=O)N[C@H]1CC[C@H](Nc2nccc(N(C)c3ccnc(-c4ccccc4)n3)n2)CC1 [Example 24, N-(4-(4-(Methyl(2-phenylpyrimidin-4-yl)amino)pyrimidin-2-ylamino)cyclohexyl)-acetamide]
C[C@H](N)C(=O)N[C@H]1CC[C@H](Nc2nccc(N(C)c3ccnc(-c4ccccc4)n3)n2)CC1 [Example 25, (S)-2-Amino-N-(4-(4-(methyl(2-phenylpyrimidin-4-yl)amino)pyrimidin-2-ylamino)cyclohexyl)propanamide]
CN(c1ccnc(NC(C)(C)CNC(=O)OC(C)(C)C)n1)c1ccnc(-c2ccccc2)n1 [Example 26, tert-Butyl 2-methyl-2-(4-(methyl(2-phenylpyrimidin-4-yl)amino)pyrimidin-2-yl-amino)propylcarbamate]
CN(c1ccnc(NC(C)(C)CN)n1)c1ccnc(-c2ccccc2)n1 [Example 27, N^2-(1-Amino-2-methylpropan-2-yl)-N^4-methyl-N^4-(2-phenylpyrimidin-4-yl)-pyrimidine-2,4-diamine]
